Source: PMC4703992, “Crystal structures of Mycobacterium tuberculosis HspAT and ArAT reveal structural basis of their distinct substrate specificities” (Scientific Reports, 2016)

Columns and labels:
mHspAT [1] = biological target: T1, mHspAT (Mycobacterium tuberculosis, UniProt P9WML7); format: biochemical; settings: pH 8.4, 37 °C
T1 construct: gene hisC; recombinant, vector pYUB1062, over-expressed in M. smegmatis mc2 4517; homodimer

mHspAT [2] = biological target: T1, mHspAT; format: binding
mArAT [3] = biological target: T2, mArAT (Mycobacterium tuberculosis, UniProt P9WML5)
T2 construct: gene pat
T2 sequence (P9WML5 whole entry): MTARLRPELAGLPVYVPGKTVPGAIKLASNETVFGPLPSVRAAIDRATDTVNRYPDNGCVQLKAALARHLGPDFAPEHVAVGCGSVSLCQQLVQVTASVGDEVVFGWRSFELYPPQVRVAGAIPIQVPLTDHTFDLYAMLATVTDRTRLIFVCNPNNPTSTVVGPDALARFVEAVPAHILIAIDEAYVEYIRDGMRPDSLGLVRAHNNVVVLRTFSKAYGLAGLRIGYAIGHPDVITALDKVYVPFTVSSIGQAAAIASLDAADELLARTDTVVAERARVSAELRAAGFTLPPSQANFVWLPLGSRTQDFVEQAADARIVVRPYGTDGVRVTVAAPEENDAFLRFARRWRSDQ

mArAT [4] = biological target: T2, mArAT; remark: listed apart in the source
[5] = tested on: N[C@H](COP(=O)(O)O)Cc1c[nH]cn1; assay: purified protein; settings: pH 8.4; 37.0 °C
N[C@@H](Cc1ccccc1)C(=O)O = assay: purified protein; settings: pH 8.4; 37.0 °C

T1 sequence (P9WML7 whole entry): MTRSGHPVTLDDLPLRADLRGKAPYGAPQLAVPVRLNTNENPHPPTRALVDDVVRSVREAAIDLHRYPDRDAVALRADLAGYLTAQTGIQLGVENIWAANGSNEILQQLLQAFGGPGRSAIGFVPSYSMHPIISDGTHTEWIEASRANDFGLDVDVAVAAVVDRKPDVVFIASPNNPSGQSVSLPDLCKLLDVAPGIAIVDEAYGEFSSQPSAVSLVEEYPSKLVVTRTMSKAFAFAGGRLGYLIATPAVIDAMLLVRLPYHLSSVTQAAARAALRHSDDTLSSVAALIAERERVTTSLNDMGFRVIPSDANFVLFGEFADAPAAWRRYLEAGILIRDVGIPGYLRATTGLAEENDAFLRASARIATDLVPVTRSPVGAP

O=S(=O)(O)CCN1CCOCC1 [MES]
Vo'/Vo (mHspAT [1]): concentration dependent inhibition of mHspAT-Hsp activity with MES

Cc1ncc(COP(=O)(O)O)c(C=O)c1O [PLP]
crystal structure, 2.05 Å (mHspAT [2]): binding of the PLP as an internal aldimine via a Schiff’s base with Lys232 Nζ | crystal structure, 1.98 Å (mArAT [3]): it exists as a PLP-Phe external aldimine intermediate complex in one of the monomers

Cc1ncc(COP(=O)(O)O)c(CN)c1O [PMP]
crystal structure, 1.95 Å (mArAT [4]): In the active site of mArAT, indigenously bound PMP and succinate were modelled

N[C@@H](Cc1ccccc1)C(=O)O [Phe]
crystal structure, 1.98 Å (mArAT [3]): Phe is present in the active site of both the monomers of a homodimer

O=C(O)CCC(=O)O [succinate]
crystal structure, 1.95 Å (mArAT [4]): In the dicarboxylate bound form, succinate exists as a non-covalently linked moiety

mHspAT (Mycobacterium tuberculosis H37Rv)
Km [5]: 0.42 ± 0.02 mM | kcat/Km [5]: 1.02e+06 ± 87000 M⁻¹ s⁻¹ | Km (N[C@@H](Cc1ccccc1)C(=O)O): 7.1 ± 0.81 mM | kcat/Km (N[C@@H](Cc1ccccc1)C(=O)O): 30000 ± 3000 M⁻¹ s⁻¹
